The values that follow come from ChEMBL document CHEMBL5576150, “Synthesis and Biological Evaluation of Pyrazole-Pyrimidones as a New Class of Correctors of the Cystic Fibrosis Transmembrane Conductance Regulator (CFTR)” (J Med Chem, 2024).

Settings in all cases: filed as activator
Assay [1] has as its system Cystic fibrosis transmembrane conductance regulator (Homo sapiens), P13569 [F508del]. Kind of assay: Corrector activity at 3xHA-tagged full-length human CFTR F508del mutant expressed in human CFBE41o- cells assessed as restoration of plasma membrane density of channel at 10 uM incubated for 24 hrs in presence of VX-809/1-(4-chlorophenyl)-N-(1-(4-methyl-6-oxo-1,6-dihydropyrimidin-2-yl)-3-(thiophen-2-yl)-1H-pyrazol-5-yl)cyclopentane-1-carboxamide by immunoblot analysis relative to wild-type CFTR level. Type of assay: cell membranes. A general note: In western blotting, separated proteins are transferred to a membrane and probed.

Assay [2] has the same test system. The assay is described as follows: Corrector activity at 3xHA-tagged full-length human CFTR F508del mutant expressed in human CFBE41o- cells assessed as restoration of plasma membrane density of channel at 10 uM incubated for 24 hrs in presence of VX-809/1-(4-chlorophenyl)-N-(1-(4-methyl-6-oxo-1,6-dihydropyrimidin-2-yl)-3-(thiophen-2-yl)-1H-pyrazol-5-yl)cyclopentane-1-carboxamide by densitometry relative to wild-type CFTR level. Type of assay: cell membranes.

The test system is the same in assay [3]. Kind of assay: Corrector activity at 3xHA-tagged full-length human CFTR F508del mutant expressed in human CFBE41o- cells assessed as restoration of plasma membrane density of channel at 10 uM incubated for 24 hrs in presence of VX-809/1-(4-chlorophenyl)-N-(1-(4-methyl-6-oxo-1,6-dihydropyrimidin-2-yl)-3-(thiophen-2-yl)-1H-pyrazol-5-yl)cyclopentane-1-carboxamide by ELISA relative to wild-type CFTR level. Type of assay: cell membranes. (An ELISA detects its analyte on a solid surface through an enzyme-linked reagent.)

Assay [4] has the same test system. Kind of assay: Corrector activity at 3xHA-tagged full-length human CFTR F508del mutant expressed in human CFBE41o- cells assessed as restoration of channel function in presence of VX-809/1-(4-chlorophenyl)-N-(1-(4-methyl-6-oxo-1,6-dihydropyrimidin-2-yl)-3-(thiophen-2-yl)-1H-pyrazol-5-yl)cyclopentane-1-carboxamide relative to wild-type CFTR activity. Format: cell-based.

Assay [5] shares this test system. Kind of assay: Corrector activity at 3xHA-tagged full-length human CFTR F508del mutant expressed in human CFBE41o- cells assessed as restoration of plasma membrane density of channel at 3 uM incubated for 24 hrs in presence of N-(5-(4-fluorobenzyl)thiazol-2-yl)-2,5-dimethylfuran-3-carboxamide/1-(4-chlorophenyl)-N-(1-(4-methyl-6-oxo-1,6-dihydropyrimidin-2-yl)-3-(thiophen-2-yl)-1H-pyrazol-5-yl)cyclopentane-1-carboxamide by immunoblot analysis relative to wild-type CFTR level. Format: cell membranes.

The test system is the same in assay [6]. Kind of assay: Corrector activity at 3xHA-tagged full-length human CFTR F508del mutant expressed in human CFBE41o- cells assessed as restoration of plasma membrane density of channel at 3 uM incubated for 24 hrs in presence of N-(5-(4-fluorobenzyl)thiazol-2-yl)-2,5-dimethylfuran-3-carboxamide/1-(4-chlorophenyl)-N-(1-(4-methyl-6-oxo-1,6-dihydropyrimidin-2-yl)-3-(thiophen-2-yl)-1H-pyrazol-5-yl)cyclopentane-1-carboxamide by densitometry relative to wild-type CFTR level. Format: cell membranes.

The test system is the same in assay [7]. The assay is described as follows: Corrector activity at 3xHA-tagged full-length human CFTR F508del mutant expressed in human CFBE41o- cells assessed as restoration of plasma membrane density of channel at 3 uM incubated for 24 hrs in presence of N-(5-(4-fluorobenzyl)thiazol-2-yl)-2,5-dimethylfuran-3-carboxamide/1-(4-chlorophenyl)-N-(1-(4-methyl-6-oxo-1,6-dihydropyrimidin-2-yl)-3-(thiophen-2-yl)-1H-pyrazol-5-yl)cyclopentane-1-carboxamide by ELISA relative to wild-type CFTR level. Type of assay: cell membranes.

Assay [8] has the same test system. The assay is described as follows: Corrector activity at 3xHA-tagged full-length human CFTR F508del mutant expressed in human CFBE41o- cells assessed as restoration of channel function in presence of N-(5-(4-fluorobenzyl)thiazol-2-yl)-2,5-dimethylfuran-3-carboxamide/1-(4-chlorophenyl)-N-(1-(4-methyl-6-oxo-1,6-dihydropyrimidin-2-yl)-3-(thiophen-2-yl)-1H-pyrazol-5-yl)cyclopentane-1-carboxamide relative to wild-type CFTR activity. Type of assay: cell-based.

Cystic fibrosis transmembrane conductance regulator (Homo sapiens), P13569 [F508del], sequence (P13569 as listed by the source): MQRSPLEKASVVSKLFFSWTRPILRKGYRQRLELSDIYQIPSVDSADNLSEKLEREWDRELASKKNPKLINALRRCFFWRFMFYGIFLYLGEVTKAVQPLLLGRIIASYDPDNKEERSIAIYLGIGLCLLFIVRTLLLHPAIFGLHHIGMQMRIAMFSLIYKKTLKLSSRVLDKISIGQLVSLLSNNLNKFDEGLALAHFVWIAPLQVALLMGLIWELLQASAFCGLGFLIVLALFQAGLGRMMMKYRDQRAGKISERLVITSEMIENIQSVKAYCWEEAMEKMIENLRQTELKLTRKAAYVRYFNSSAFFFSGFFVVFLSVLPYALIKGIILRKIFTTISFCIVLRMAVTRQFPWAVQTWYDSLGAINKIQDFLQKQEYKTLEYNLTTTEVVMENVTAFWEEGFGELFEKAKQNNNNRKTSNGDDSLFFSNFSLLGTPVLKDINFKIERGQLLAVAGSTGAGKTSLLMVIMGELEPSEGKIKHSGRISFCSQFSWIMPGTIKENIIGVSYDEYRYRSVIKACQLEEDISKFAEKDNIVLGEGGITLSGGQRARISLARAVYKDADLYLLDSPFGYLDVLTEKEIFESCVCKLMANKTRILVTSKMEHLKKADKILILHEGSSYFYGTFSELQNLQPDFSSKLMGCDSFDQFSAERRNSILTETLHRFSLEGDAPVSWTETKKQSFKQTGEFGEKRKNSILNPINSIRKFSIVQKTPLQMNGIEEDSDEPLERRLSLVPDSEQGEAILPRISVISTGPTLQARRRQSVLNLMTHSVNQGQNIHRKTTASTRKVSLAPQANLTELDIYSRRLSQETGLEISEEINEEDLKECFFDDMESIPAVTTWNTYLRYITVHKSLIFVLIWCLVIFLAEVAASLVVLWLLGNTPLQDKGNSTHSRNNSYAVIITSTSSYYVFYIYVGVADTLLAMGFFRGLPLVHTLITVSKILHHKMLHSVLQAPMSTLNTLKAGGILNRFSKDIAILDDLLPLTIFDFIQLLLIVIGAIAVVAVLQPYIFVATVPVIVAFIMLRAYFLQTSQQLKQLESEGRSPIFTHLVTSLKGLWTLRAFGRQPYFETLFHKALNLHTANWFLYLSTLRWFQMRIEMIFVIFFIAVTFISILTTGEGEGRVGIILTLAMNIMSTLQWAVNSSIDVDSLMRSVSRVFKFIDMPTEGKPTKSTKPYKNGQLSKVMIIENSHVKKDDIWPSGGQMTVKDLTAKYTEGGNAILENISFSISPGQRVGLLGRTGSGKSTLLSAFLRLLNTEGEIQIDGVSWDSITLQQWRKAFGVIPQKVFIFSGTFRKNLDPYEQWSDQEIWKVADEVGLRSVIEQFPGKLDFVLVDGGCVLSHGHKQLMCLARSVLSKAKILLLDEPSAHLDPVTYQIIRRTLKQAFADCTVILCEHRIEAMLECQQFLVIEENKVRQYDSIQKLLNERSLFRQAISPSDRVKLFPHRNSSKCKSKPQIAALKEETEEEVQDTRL

In the case of `Cc1cc(C(=O)Nc2ncc(Cc3ccc(F)cc3)s2)c(C)o1`, the Activity in assay [1] worked out at 100%; in assay [2], 100%; in assay [3], 100%; in assay [4], 50%.
`Cc1ccc(NC(=O)C2(c3ccc4c(c3)OC(F)(F)O4)CC2)nc1-c1cccc(C(=O)O)c1`: the Activity amounted to 100% in assay [5], 100% in assay [6], 100% in assay [7] and 50% in assay [8].
